According to patent US20120135923A1, “Use of Melanocortins to Treat Dyslipidemia” (IPSEN PHARMA, S.A.S., priority 2009, published 2012):
Read-outs that look alike come from different tables or passages of the source. Blank lines part the entries; values can stand above or below the compound they belong to. Bridge positions count the residues as written; N and C are the ends. Square brackets hold non-standard residues; d marks the D form. Peptide text beside a SMILES is read from it. d2Nal = N[C@H](Cc1ccc2ccccc2c1)C(=O)O; Bta = N[C@@H](Cc1csc2ccccc12)C(=O)O; Nle = CCCC[C@H](N)C(=O)O; GABA = NCCCC(=O)O

How the values were obtained:
hMC4-R [1] = molecular target: T1, hMC4-R (Homo sapiens, UniProt P32245); assay: cyclic AMP bioassay (ECL) in CHO-K1 cells; type: cell-based
T1 construct: expressed in transfected cells; host or cells: CHO-K1
T1 sequence (P32245 whole entry): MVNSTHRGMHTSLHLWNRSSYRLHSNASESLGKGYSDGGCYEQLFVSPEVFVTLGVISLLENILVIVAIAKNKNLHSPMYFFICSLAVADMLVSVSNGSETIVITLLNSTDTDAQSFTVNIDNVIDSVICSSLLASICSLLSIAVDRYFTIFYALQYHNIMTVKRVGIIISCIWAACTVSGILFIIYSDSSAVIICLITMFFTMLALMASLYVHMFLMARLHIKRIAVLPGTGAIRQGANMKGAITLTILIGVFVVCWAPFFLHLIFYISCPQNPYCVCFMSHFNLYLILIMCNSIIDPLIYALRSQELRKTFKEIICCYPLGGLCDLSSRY
Experimental: (§3) Intracellular cyclic AMP (cAMP) levels were determined by an electrochemiluminescence (ECL) assay (Meso Scale Discovery®, Gaithersburg, Md.; referred to hereinafter as MSD). […] Transgenic CHO-K1 cells stably expressing hMC receptor subtypes 1, 3, 4 or 5 were dispensed at a density of approximately 7,000 cells/well in 384-well Multi-Array®plates (MSD) containing integrated carbon electrodes and coated with anti-cAMP antibody. Increasing concentrations of the test compounds were added and the cells were incubated for approximately 40 minutes at approximately 37° C. […] At the end of the second incubation period read buffer (Tris-buffered solution containing an ECL co-reactant and Triton X-100 at ph 7.8) was added and the cAMP levels in the cell lysates were immediately determined by ECL detection with a Sector Imager 6000 Reader® (MSD). Data were analyzed using a computer-assisted non-linear regression analysis (XL fit; IDBS) and reported as either an EC50 value or a Kb value.
(§4) The Kb value reflects the potency of an antagonist and is determined by Schild analysis. In brief, concentration-response curves of an agonist are carried out in the presence of increasing concentrations of an antagonist. […] It is calculated by extrapolating the line on a Schild plot to zero on the y-axis.

hMC3-R [2] = molecular target: T2, hMC3-R (Homo sapiens, UniProt P41968); assay: cyclic AMP bioassay (ECL) in CHO-K1 cells; type: cell-based
T2 construct: expressed in transfected cells; host or cells: CHO-K1
T2 sequence (P41968 whole entry): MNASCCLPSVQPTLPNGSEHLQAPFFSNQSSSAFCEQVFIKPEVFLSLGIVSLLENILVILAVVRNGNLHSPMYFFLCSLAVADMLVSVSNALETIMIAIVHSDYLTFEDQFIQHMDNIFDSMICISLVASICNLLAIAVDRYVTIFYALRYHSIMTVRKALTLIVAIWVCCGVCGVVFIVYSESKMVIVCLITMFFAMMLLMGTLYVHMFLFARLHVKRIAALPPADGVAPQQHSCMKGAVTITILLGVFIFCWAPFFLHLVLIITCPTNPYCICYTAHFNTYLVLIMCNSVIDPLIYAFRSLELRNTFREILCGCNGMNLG

hMC1-R [3] = molecular target: T3, hMC1-R (Homo sapiens, UniProt Q01726); assay: cyclic AMP bioassay (ECL) in CHO-K1 cells; type: cell-based
T3 construct: expressed in transfected cells; host or cells: CHO-K1
T3 sequence (Q01726 whole entry): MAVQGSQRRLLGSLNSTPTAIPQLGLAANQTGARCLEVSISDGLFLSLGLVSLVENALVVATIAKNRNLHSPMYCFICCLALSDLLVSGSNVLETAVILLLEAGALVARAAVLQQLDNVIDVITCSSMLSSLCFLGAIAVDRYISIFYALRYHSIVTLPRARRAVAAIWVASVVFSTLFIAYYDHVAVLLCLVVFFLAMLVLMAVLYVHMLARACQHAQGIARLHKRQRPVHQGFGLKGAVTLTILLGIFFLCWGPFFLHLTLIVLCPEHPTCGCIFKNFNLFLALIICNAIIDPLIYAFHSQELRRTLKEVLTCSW

hMC5-R [4] = molecular target: T4, hMC5-R (Homo sapiens, UniProt P33032); assay: cyclic AMP bioassay (ECL) in CHO-K1 cells; type: cell-based
T4 construct: expressed in transfected cells; host or cells: CHO-K1
T4 sequence (P33032 whole entry): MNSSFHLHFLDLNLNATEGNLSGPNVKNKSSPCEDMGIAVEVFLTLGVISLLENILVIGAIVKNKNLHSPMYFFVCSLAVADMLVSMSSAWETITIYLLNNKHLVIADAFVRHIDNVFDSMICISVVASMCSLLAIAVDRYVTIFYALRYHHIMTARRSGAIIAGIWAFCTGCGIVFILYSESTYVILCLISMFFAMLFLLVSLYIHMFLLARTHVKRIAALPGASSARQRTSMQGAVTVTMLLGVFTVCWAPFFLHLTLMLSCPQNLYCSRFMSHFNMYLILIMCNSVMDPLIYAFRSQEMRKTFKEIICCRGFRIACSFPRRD
Experimental: as §3, §4

hMC3-R [5] = molecular target: T2, hMC3-R; assay: Radioligand binding assay, [125I]-NDP-α-MSH competition, CHO-K1 membranes
Experimental: (§1) Cellular membranes used for the in vitro receptor binding assays were obtained from transgenic CHO-K1 cells stably expressing hMC-R receptor subtypes 1, 3, 4 or 5. […] The pellets were resuspended in the same buffer and centrifuged at 50,000 g for 10 minutes at approximately 4° C. The washed pellets containing the cellular membranes were stored at approximately −80° C.
(§2) Cell membranes (1-10 μg protein/well) prepared as described above were incubated in 50 mM Tris-HCl at pH 7.4 containing 0.2% bovine serum albumin (BSA), 5 mM MgCl2, 1 mM CaCl2 and 0.1 mg/mL bacitracin, with increasing concentrations of the test compound and 0.1-0.3 nM [^25I]-NDP-α-MSH for approximately 90-120 minutes at approximately 37° C. […] Filters were washed three times with 50 mM Tris-HCl at pH 7.4 at a temperature of approximately 0-4° C. and then assayed for radioactivity using a Packard Topcount® scintillation counter. Binding data were analyzed by computer-assisted non-linear regression analysis (XL fit; IDBS).

hMC5-R [6] = molecular target: T4, hMC5-R; assay: as above
Experimental: as §1, §2

hMC4-R [7] = molecular target: T1, hMC4-R; assay: as above
Experimental: as §1, §2

hMC1-R [8] = molecular target: T3, hMC1-R; assay: as above; details: Table 5
Experimental: as §1, §2

SMILES: CC(=O)N[C@H]1CSSC[C@@H](C(=O)N2CCC[C@H]2C(=O)N2CCC[C@H]2C(=O)N[C@@H](CCCCN)C(=O)N[C@@H](CC(=O)O)C(=O)NCCC(=O)N[C@@H](Cc2ccc(O)cc2)C(=O)NCC(=O)N[C@@H](CCCNC(=N)N)C(=O)N[C@@H](CCCCN)C(=O)N[C@@H](CCCNC(=N)N)C(=O)N[C@@H](CCCNC(=N)N)C(=O)N[C@@H](CCCNC(=N)N)C(=O)N[C@@H](CCC(N)=O)C(=O)N[C@@H](CCCNC(=N)N)C(=O)N[C@@H](CCCNC(=N)N)C(=O)N[C@@H](CCCNC(=N)N)C(N)=O)NC(=O)[C@H](C)NC(=O)[C@H](Cc2csc3ccccc23)NC(=O)[C@H](CCCNC(=N)N)NC(=O)[C@@H](Cc2ccc3ccccc3c2)NC(=O)[C@H](Cc2c[nH]cn2)NC(=O)[C@H](CCC(=O)O)NC1=O
Kb (hMC4-R [1]): 9.45 nM | Kb (hMC3-R [2]): 52.1 nM | EC50 (hMC1-R [3]): 11.2 nM | EC50 (hMC5-R [4]): 95.7 nM | Ki (hMC3-R [5]; Ki hMC3-R, Table 6): 1.12 nM

SMILES: CC(=O)N[C@H]1CSSC[C@@H](C(=O)N2CCC[C@H]2C(=O)N2CCC[C@H]2C(=O)N[C@@H](CCCCN)C(=O)N[C@@H](CC(=O)O)C(=O)NCCC(=O)N[C@@H](CCCNC(=N)N)C(=O)N[C@@H](CCCNC(=N)N)C(=O)N[C@@H](CCCCN)C(=O)N[C@@H](CCCNC(=N)N)C(=O)N[C@@H](CCCNC(=N)N)C(=O)N[C@@H](CCC(N)=O)C(=O)N[C@@H](CCCNC(=N)N)C(=O)N[C@@H](CCCNC(=N)N)C(=O)N[C@@H](CCCNC(=N)N)C(N)=O)NC(=O)[C@H](C)NC(=O)[C@H](Cc2csc3ccccc23)NC(=O)[C@H](CCCNC(=N)N)NC(=O)[C@@H](Cc2ccc3ccccc3c2)NC(=O)[C@H](Cc2c[nH]cn2)NC(=O)[C@H](CCC(=O)O)NC1=O
Kb (hMC4-R [1]): 10 nM | EC50 (hMC1-R [3]): 232 nM | EC50 (hMC5-R [4]): 250 nM | Ki (hMC5-R [6]; Ki hMC5-R, Table 6): 15.5 nM | Ki (hMC4-R [7]; Ki hMC4-R, Table 6): 0.442 nM

SMILES: CC(=O)N[C@H]1CSSC[C@@H](C(=O)N2CCC[C@H]2C(=O)N2CCC[C@H]2C(=O)N[C@@H](CCCCN)C(=O)N[C@@H](CC(=O)O)C(=O)NCCC(=O)N[C@@H](CCCNC(=N)N)C(=O)N[C@@H](CCCNC(=N)N)C(=O)N[C@@H](CCCNC(=N)N)C(=O)N[C@@H](CCCNC(=N)N)C(=O)N[C@@H](CCCNC(=N)N)C(=O)N[C@@H](CCCNC(=N)N)C(=O)N[C@@H](CCC(N)=O)C(=O)N[C@@H](CCCNC(=N)N)C(=O)N[C@@H](CCCNC(=N)N)C(=O)N[C@@H](CCCNC(=N)N)C(N)=O)NC(=O)[C@H](C)NC(=O)[C@H](Cc2csc3ccccc23)NC(=O)[C@H](CCCNC(=N)N)NC(=O)[C@@H](Cc2ccc3ccccc3c2)NC(=O)[C@H](Cc2c[nH]cn2)NC(=O)[C@H](CCC(=O)O)NC1=O
Kb (hMC4-R [1]): 33.2 nM | Kb (hMC3-R [2]): 153 nM | EC50 (hMC1-R [3]): 68.6 nM | EC50 (hMC5-R [4]): > 10000 nM | Ki (hMC3-R [5]; Ki hMC3-R, Table 6): 14.3 nM

EC50 (hMC4-R [1]; Table 9A/9B, read-out: EC50 hMC4-R): 0.0949 nM | EC50 (hMC3-R [2]; Table 9A/9B, read-out: EC50 hMC3-R): 0.189 nM | EC50 (hMC1-R [3]; Table 9A/9B, read-out: EC50 hMC1-R): 3.26 nM | EC50 (hMC5-R [4]; Table 9A/9B, read-out: EC50 hMC5-R): 30.2 nM | Ki (hMC4-R [7]; Table 5, read-out: Ki KMC4-R): 1.49 nM
SMILES: CC(=O)N[C@@H](CC1CCCCC1)C(=O)N[C@H]1CC(=O)NCCCC[C@@H](C(N)=O)NC(=O)CCCNC(=O)[C@H](Cc2c[nH]c3ccccc23)NC(=O)[C@H](CCCNC(=N)N)NC(=O)[C@@H](Cc2ccccc2)NC(=O)[C@H](Cc2c[nH]cn2)NC1=O [Ac-Cha-c(Asp-His-D-Phe-Arg-Trp-Gaba-Lys)-NH2]

SMILES: CC(=O)N[C@H](CCCNC(=N)N)C(=O)N[C@H]1CSSC(C)(C)[C@@H](C(N)=O)NC(=O)[C@H](Cc2c[nH]c3ccccc23)NC(=O)[C@H](CCCNC(=N)N)NC(=O)[C@@H](Cc2ccccc2)NC(=O)[C@H](Cc2c[nH]cn2)NC(=O)[C@@H](C)NC1=O [Ac-D-Arg-c(Cys-D-Ala-His-D-Phe-Arg-Trp-Pen)-NH2]
EC50 (hMC4-R [1]): 0.493 nM | EC50 (hMC3-R [2]): 10.5 nM | EC50 (hMC1-R [3]): 26.5 nM | EC50 (hMC5-R [4]): 2440 nM | Ki (hMC1-R [8]; Ki hMC1-R): 8.29 nM | Ki (hMC5-R [6]; Ki hMC5-R, Table 5): 816 nM | Ki (hMC3-R [5]; Ki hMC3-R, Table 5): 13.3 nM

Ki (hMC3-R [5]; Table 5, read-out: Ki hMC3-R): 17.4 nM
SMILES: CC(=O)N[C@@H](CC(C)C)C(=O)N[C@H]1CSSC[C@@H](C(N)=O)NC(=O)CCCNC(=O)[C@H](Cc2c[nH]c3ccccc23)NC(=O)[C@H](CCCNC(=N)N)NC(=O)[C@@H](Cc2ccccc2)NC(=O)[C@H](Cc2c[nH]cn2)NC1=O [Ac-Leu-c(Cys-His-D-Phe-Arg-Trp-Gaba-Cys)-NH2] (Ac-LCH[dF]RW[GABA]C-NH2; disulfide 2-8 (inferred))

Ki (hMC1-R [8]; read-out: Ki hMC1-R): 21.1 nM | Ki (hMC5-R [6]; Table 5, read-out: Ki hMC5-R): 92.6 nM | Ki (hMC3-R [5]; Table 5, read-out: Ki hMC3-R): 151 nM
SMILES: CCCC[C@H](NC(C)=O)C(=O)N[C@H]1CSSC[C@@H](C(N)=O)NC(=O)CCCNC(=O)[C@H](Cc2c[nH]c3ccccc23)NC(=O)[C@H](CCCNC(=N)N)NC(=O)[C@@H](Cc2ccccc2)NC(=O)[C@H](Cc2cccnc2)NC1=O [Ac-Nle-c(Cys-3-Pal-D-Phe-Arg-Trp-Gaba-Cys)-NH2]

Ki (hMC1-R [8]; read-out: Ki hMC1-R): 22.2 nM | Ki (hMC5-R [6]; Table 5, read-out: Ki hMC5-R): 125 nM | Ki (hMC3-R [5]; Table 5, read-out: Ki hMC3-R): 12.7 nM
SMILES: CCCC[C@H](NC(C)=O)C(=O)N[C@H]1CSSC[C@@H](C(N)=O)NC(=O)[C@H](Cc2csc3ccccc23)NC(=O)[C@H](CCCNC(=N)N)NC(=O)[C@@H](Cc2ccc3ccccc3c2)NC(=O)[C@H](Cc2c[nH]cn2)NC(=O)[C@@H](C)NC1=O [Ac-Nle-c(Cys-D-Ala-His-D-2-Nal-Arg-Bal-Cys)-NH2] (Ac-[Nle]C[dA]H[d2Nal]R[Bta]C-NH2; disulfide 2-8)
